This is an account of results in patent publication US20040191287A1, “Fumigation process for stored food grains” (priority 2003, published 2004).

The test system of one data set is Rhyzopertha dominica. Briefly: whole plant or invertebrate. The conditions noted are these: Rhyzopertha dominica, read-out: Mortality (%) (Mean ± SD). How it is done: (§1) Cryptolestes sp. was reared on wheat feed. S. oryzae, Cryptolestes sp. and T. castaneum cultures were maintained at 25±1° C. and 70% RH whereas R. dominica cultures were maintained at 30±1° C. and 70% RH. From the established cultures, 2-week-old adults were taken and counted into 10 cm×2.3 cm size test tubes at 50 per replicate. The mouth of the tube was closed with a cloth piece held by small rubber ring. The insects were exposed to a range of doses (10 to 100 mg/litre) of esters for 24 hours in 0.85-liter desicators at the laboratory temperature of 26±2° C. Pure grade esters including allyl acetate, butyl acetate, ethyl acetoacetate, isopropyl acetate and propyl acetate were procured from Merck India Ltd. In each desiccator a 9 cm diameter Whatman No. 1 filter circle was placed; the filter circle acted as evaporating surface for the injected liquids (esters). Required quantity of the ester was drawn from the bottles using 10, 25 or 50 micro litre liquid syringe. There were 6 replicates for each dose with equal number of replicates for untreated control. The exposure period in all cases was 24 hours. […] Insect mortality was assessed after 14 days. Corrected mortality was arrived at based on Abbott's formula (1925).

Another data set relates to Tribolium castaneum. Briefly: whole plant or invertebrate. Particulars: Tribolium castaneum, read-out: Mortality (%) (Mean ± SD). How it is done:
as §1

The test system of another data set is Sitophilus oryzae. Briefly: whole plant or invertebrate. The conditions noted are these: Sitophilus oryzae, read-out: Mortality (%) (Mean ± SD). How it is done: as §1
The conditions of data set [1]: cited from earlier work.
A further data set has as its system human beings. The conditions noted are these: cited from earlier work.

As for `CCCCOC(C)=O` [Butyl acetate, butyl acetate], in the data set with Rhyzopertha dominica, the mortality at 10 µg/mL amounted to 1.6 ± 3.5%, the mortality at 20 µg/mL was 0%, the mortality at 30 µg/mL stood at 0.2 ± 0.7% and the mortality at 50 µg/mL came out at 20.9 ± 26.8%. In the data set with Rhyzopertha dominica, the mortality at 100 µg/mL was 100%. Besides, in the data set with Tribolium castaneum, the mortality at 10 µg/mL was determined as 2 ± 2.6%, the mortality at 20 µg/mL stood at 2.1 ± 1.1%, the mortality at 30 µg/mL was determined as 0.6 ± 1.1% and the mortality at 50 µg/mL was found to be 13.9 ± 0.8%. In addition, the mortality at 100 µg/mL in the data set on Tribolium castaneum stood at 96.2 ± 0.8%. For the same compound, in the data set on Sitophilus oryzae, the mortality at 10 µg/mL was 8.3 ± 12.3%, the mortality at 20 µg/mL is 1.7 ± 2.4%, the mortality at 30 µg/mL came out at 3.2 ± 4.5% and the mortality at 50 µg/mL worked out at 67.3 ± 7.7%. For the same compound, the mortality at 100 µg/mL with Sitophilus oryzae was determined as 100%.
Take `CCOC(=O)CC(C)=O` [Ethyl acetoacetate, ethyl acetoacetate]: in the data set with Rhyzopertha dominica, the mortality at 10 µg/mL is 0%, the mortality at 20 µg/mL was found to be 0%, the mortality at 30 µg/mL worked out at 5.7 ± 10.4% and the mortality at 50 µg/mL came to 8.6 ± 17.1%. Besides, in the data set on Rhyzopertha dominica, the mortality at 100 µg/mL worked out at 0.4 ± 0.9%. In addition, in the data set with Tribolium castaneum, the mortality at 10 µg/mL was 0.6 ± 2.6%, the mortality at 20 µg/mL turned out to be 0.8 ± 1.1%, the mortality at 30 µg/mL was 0.3 ± 1.1% and the mortality at 50 µg/mL was 0.7 ± 0.8%. In addition, the mortality at 100 µg/mL in the data set with Tribolium castaneum came out at 1.3 ± 0.8%. For the same compound, in the data set on Sitophilus oryzae, the mortality at 10 µg/mL worked out at 3.1 ± 6.9%, the mortality at 20 µg/mL stood at 4.7 ± 7.1%, the mortality at 30 µg/mL came to 5.1 ± 5.7% and the mortality at 50 µg/mL was determined as 6.5 ± 5.5%. The mortality at 100 µg/mL in the data set on Sitophilus oryzae worked out at 15.8 ± 14%.
Regarding `CC(=O)OC(C)C` [Isopropyl acetate, isopropyl acetate], in the data set with Rhyzopertha dominica, the mortality at 10 µg/mL is 4.4 ± 6.9%, the mortality at 20 µg/mL was 8.9 ± 10.7%, the mortality at 30 µg/mL was 6.1 ± 6.7% and the mortality at 50 µg/mL is 39.2 ± 8.2%. For the same compound, the mortality at 100 µg/mL in the data set on Rhyzopertha dominica is 100%. In the data set with Tribolium castaneum, the mortality at 10 µg/mL was determined as 0.3 ± 0.6%, the mortality at 20 µg/mL stood at 1.3 ± 1.7%, the mortality at 30 µg/mL amounted to 32.7 ± 44.1% and the mortality at 50 µg/mL is 66.5 ± 27.7%. In addition, in the data set on Tribolium castaneum, the mortality at 100 µg/mL amounted to 100%. Further, in the data set on Sitophilus oryzae, the mortality at 10 µg/mL is 5.5 ± 6.9%, the mortality at 20 µg/mL was 2.3 ± 5.6%, the mortality at 30 µg/mL amounted to 3.7 ± 7.56% and the mortality at 50 µg/mL turned out to be 47.1 ± 31.2%. Besides, the mortality at 100 µg/mL with Sitophilus oryzae stood at 100%.
`CCCOC(C)=O` [Propyl acetate, propyl acetate]: in the data set on Rhyzopertha dominica, the mortality at 10 µg/mL was 2 ± 4%, the mortality at 20 µg/mL came to 7.3 ± 10%, the mortality at 30 µg/mL was found to be 5.3 ± 10.6% and the mortality at 50 µg/mL was found to be 65.4 ± 40%. The mortality at 100 µg/mL in the data set on Rhyzopertha dominica amounted to 100%. For the same compound, in the data set on Tribolium castaneum, the mortality at 10 µg/mL was determined as 0.9%, the mortality at 20 µg/mL came to 0.9%, the mortality at 30 µg/mL is 12.6 ± 21.2% and the mortality at 50 µg/mL turned out to be 83.2 ± 26.3%. The mortality at 100 µg/mL in the data set on Tribolium castaneum was 100%. Besides, in the data set with Sitophilus oryzae, the mortality at 10 µg/mL came to 2.4 ± 3.8%, the mortality at 20 µg/mL amounted to 0.5 ± 1.3%, the mortality at 30 µg/mL was found to be 14.2 ± 8.1% and the mortality at 50 µg/mL turned out to be 74.3 ± 20.2%. For the same compound, the mortality at 100 µg/mL with Sitophilus oryzae came to 100%.
As to `N#CC#N` [cyanogen, reference compound], the Solubility in water entry in data set [1] was “highly water-soluble”. The “toxicity to human beings” value with human beings was “highly toxic”.
In the case of `O=S(=O)(F)F` [sulfuryl fluoride, reference compound], in data set [1] (at 25° C.), the vapour pressure is on record as 13,442 mm of Hg.

The term mortality denotes the share of the test organisms that died.
